The test system of experiment [1] is Plasmopara viticola. Briefly: Activity against Peronospora of grapevines caused by Plasmopara viticola, 7 day protective application (Use Example 5). Type of experiment: in vivo, Plasmopara viticola on potted grapevines. The conditions noted are these: 250 ppm active compound, untreated plants 50% infected. The protocol: (§1) For the use examples 4 to 7, the active compounds were prepared as a stock solution comprising 25 mg of active compound which was made up with a mixture of acetone and/or DMSO and the emulsifier Uniperol® EL in a volume ratio of solvent/emulsifier of 99:1 to 10 ml. The mixture was then made up to 100 ml with water. This stock solution was diluted to the active compound concentration stated below using the solvent/emulsifier/water mixture described.
Leaves of potted grapevines were sprayed to runoff point with an aqueous suspension having the concentration of active compound stated below. To be able to assess the persistency of the substances, the plants were, after the spray coating had dried on, placed in a greenhouse for 7 days. The undersides of the leaves were then inoculated with an aqueous sporangia suspension of Plasmopara viticola. The grapevines were then placed initially for 48 hours in a water vapor-saturated chamber at 24° C. and then for 5 days in the greenhouse at temperatures between 20 and 30° C. After this time, the plants were again placed in a humid chamber for 16 hours, to accelerate sporangiophore eruption. The extent of the development of the infection on the undersides of the leaves was then determined visually.

Experiment [2] concerns Plasmopara viticola. Briefly: Activity against Peronospora of grapevines caused by Plasmopara viticola (Use Example 1, inoculation the next day). Type of experiment: in vivo, Plasmopara viticola on potted grapevines. As to conditions: 250 ppm active compound, spray to runoff, inoculated next day; untreated plants 80% infected. The protocol: For the use examples 1 to 3, the active compounds were prepared as a stock solution comprising 0.25% by weight of active compound in acetone or dimethyl sulfoxide (DMSO). 1% by weight of the emulsifier Uniperol® EL (wetting agent having emulsifying and dispersant action based on ethoxylated alkylphenols) was added to this solution, and the mixture was diluted with water to the desired concentration.
Leaves of potted grapevines were sprayed to runoff point with an aqueous suspension having the concentration of active compounds stated below. The next day, the undersides of the leaves were inoculated with an aqueous sporangia suspension of Plasmopara viticola. The grapevines were then initially placed in a water vapor-saturated chamber at 24° C. for 48 hours and then in a greenhouse at temperatures between 20 and 30° C. for 5 days. After this time, the plants were again placed in a humid chamber for 16 hours to promote sporangiophore eruption. The extent of the development of the infection on the undersides of the leaves was then determined visually.

In experiment [3] the test system is Erysiphe [syn. Blumeria] graminis forma specialis. tritici. The experiment in a line: Activity against mildew of wheat caused by Erysiphe [syn. Blumeria] graminis forma specialis. tritici (Use Example 7). Type of experiment: in vivo. As to conditions: 250 ppm active compound, protective 24 h, 7 days; untreated plants 70% infected. The procedure: as §1
Leaves of potted wheat seedlings of the cultivar “Kanzler” were sprayed to runoff point with an aqueous suspension having the concentration of active compound stated below. 24 h after the spray coating had dried on, the leaves were dusted with spores of mildew of wheat (Erysiphe [syn. Blumeria] graminis forma specialis. tritici). The plants were then placed in a greenhouse at temperatures between 20 and 24° C. and 60 to 90% relative atmospheric humidity. After 7 days, the extent of the fungal infection was determined visually by the infection of the leaf area.

For the next experiment, the system named is Botrytis cinerea. Briefly: Activity against gray mold on bell pepper leaves caused by Botrytis cinerea, protective application (Use Example 6). In kind it is in vivo. The conditions noted are these: 63 ppm active compound, 5 days, untreated plants 90% affected. The protocol: The mixture was then made up to 100 ml with water.
The next day, the treated plants were inoculated with an aqueous spore suspension of Botrytis cinerea in a 2% strength aqueous biomold solution having a density of 1.7×10^6 spores/ml. The plants were then placed in a dark acclimatized chamber at temperatures between 22 and 24° C. and high atmospheric humidity. After 5 days, the extent of the fungal infection could be determined visually by the infection of the leaf area.

In the case of `Cc1nn(C)cc1C(=O)Nc1cc(C(F)(F)F)nn1-c1ccccc1` [example 10], the infection entry with Plasmopara viticola [1] is reported as “at most 20%”.
For `Cc1ccsc1C(=O)Nc1cc(C(F)(F)F)nn1-c1ccc(Br)cc1` [example 18], in the experiment with Plasmopara viticola [2], the infection entry is listed as “at most 20%”.
In the case of `Cc1ccc(-n2nccc2NC(=O)c2cccnc2Cl)cc1` [example 31], in experiment [3], the “infection (leaf area)” value is on record as “at most 15%”.
Consider `Cn1cc(C(=O)Nc2ccnn2-c2ccc(-c3ccccc3)cc2)c(C(F)(F)F)n1` [example 43], for which the “infection (leaf area)” value in the experiment with Botrytis cinerea is reported as “at most 10%”.
